Results from patent US8778912B2, “Composition of dialysis liquid comprising crystallisation inhibitor substances” (Universitat de les Illes Balears, priority 2008, dated 2014).

Assays:
[1] = Dialysis of artificial plasma with 1 mM etidronate against dialysing liquid with 5 times greater etidronate concentration; assay type: in vitro ADME
Experimental: (§1) An artificial plasma was prepared with 1 mM of etidronate, regulating the ionic strength with 0.15 M NaCl. 25 ml of this solution were dialysed for 20 hours against a 1-l volume of a 0.15 M NaCl solution with a concentration of etidronate 5 times greater than that of the plasma. The pH of both solutions was adjusted to 7.4 using bicarbonate buffer.
(§2) 5-ml aliquots of the dialysing liquid were collected at times 0, 1, 3, 6 and 20 hours, and the quantity of etidronate was determined in each of them. Moreover, the concentration of etidronate in the artificial plasma was determined at times 0 and 20 hours.

[2] = Dialysis of artificial plasma with 5 mM etidronate against dialysing liquid without etidronate; assay type: in vitro ADME; conditions: after a 20-hour period, pH 7.4
Experimental: An artificial plasma was prepared with 5 mM of etidronate, regulating the ionic strength with 0.15 M NaCl. 25 ml of this solution were dialysed for 20 hours against a 1-l volume of a 0.15 M NaCl solution without etidronate (dialysing liquid model). The pH of both solutions was adjusted to 7.4 using bicarbonate buffer.
as §2

[3] = Dialysis of artificial plasma with 5 mM etidronate against dialysing liquid with the same concentration of etidronate; assay type: in vitro ADME; conditions: 20 hours dialysis; 5 mM etidronate in both plasma and dialysing liquid, pH 7.4
Experimental: as §1, with “with 5” for “with 1”, “with the same” for “with a”, “etidronate as” for “etidronate 5 times greater than that of”
as §2

[4] = Dialysis of artificial plasma with 1.5 mM phytate against dialysing liquid with the same concentration of phytate; assay type: in vitro ADME; conditions: 20 hours dialysis; 1.5 mM phytate in both plasma and dialysing liquid, pH 7.4
Experimental: (§3) An artificial plasma was prepared with 1.5 mM of phytate, regulating the ionic strength with 0.15 M NaCl. 25 ml of this solution were dialysed for 20 hours against a 1-l volume of a 0.15 M NaCl solution with the same concentration of phytate as the plasma. The pH of both solutions was adjusted to 7.4 using bicarbonate buffer. 5-ml aliquots of the dialysing liquid were collected at times 0, 1, 3, 6 and 20 hours, and the quantity of phytate was determined in each of them. Moreover, the concentration of phytate in the artificial plasma was determined at times 0 and 20 hours.

[5] = Dialysis of artificial plasma with 300 μM phytate against dialysing liquid with 5 times greater phytate concentration; assay type: in vitro ADME
Experimental: as §3, with “with 300 μM” for “with 1.5 mM”, “with a” for “with the same”, “phytate 5 times greater than that of” for “phytate as”

[6] = Intravenous administration to rats on a diet without phytate; urinary and plasma phytate; assay type: in vivo, male Wistar rats; conditions: treated group, 3 intravenous doses of 0.61 mmol/kg (400 mg/kg) 12 hours apart
Experimental: 6 male Wistar rats approximately 250 g in weight were acclimated from 7 dias in the animal house (T=[…] and humidity=60±5%) with 12:12-hour light-darkness cycles. The rats were housed in Plexiglas cages, with one animal per cage, and fed with food and drink ad libitum.
Following the acclimation period, the animals were randomly divided into two groups with 3 rats each, a control group (with a diet without phytate, thereby simulating a post-dialysis physiological condition) and a treated group, which received 3 intravenous doses of 0.61 mmol/kg (400 mg/kg) separated by 12-hour periods. Following the last administration, 24-hour urine samples were collected in order to determine the phytate and, subsequently, the animals were anaesthesised and blood samples were collected.
The procedures used in this experiment were performed in accordance with Directive 86/609/EEC regarding the protection of animals used for experimental and scientific purposes.

[7] = Dialysis of artificial plasma with 1.5 mM phytate against dialysing liquid without phytate; assay type: in vitro ADME; conditions: after a 20-hour period, pH 7.4
Experimental: An artificial plasma (liquid with a composition similar to that of plasma) was prepared with 1.5 mM phytate, regulating the ionic strength with 0.15 M NaCl. 25 ml of this solution were dialysed for 20 hours against a 1-l volume of a 0.15 M NaCl solution without phytate (dialysing liquid model). The pH of both solutions was adjusted to 7.4 using bicarbonate buffer. 5-ml aliquots of the dialysing liquid were collected at times 0, 1, 3, 6 and 20 hours, and the quantity of phytate in each of them was determined. Moreover, the concentration of phytate in the artificial plasma was determined at times 0 and 20 hours.

CC(O)(P(=O)(O)O)P(=O)(O)O [etidronate, etidronic acid]
change of plasma concentration of etidronate (in words) ([1]; 20-hour period, dialysis liquid with etidronate concentration greater than that of the plasma): increase the plasma concentration
etidronate from the dialysis liquid that enters into the artificial plasma ([1]; 20 hours dialysis, plasma 1 mM etidronate, dialysis liquid 5 times greater, pH 7.4): up to 1.65%
increase of the concentration of etidronate in the artificial plasma ([1]; 20 hours dialysis, plasma 1 mM etidronate, dialysis liquid 5 times greater, from ratio of initial volumes and concentrations): 330%
quantity of etidronate in the dialysis solution, as share of the initial quantity in the artificial plasma [2]: 95.6%
variation in the concentration of etidronate in the plasma and the dialysing liquid [3]: no variations

O=P(O)(O)O[C@H]1[C@H](OP(=O)(O)O)[C@@H](OP(=O)(O)O)[C@H](OP(=O)(O)O)[C@@H](OP(=O)(O)O)[C@H]1OP(=O)(O)O [phytate, myo-inositol hexaphosphate]
variation in the concentration of phytate in the plasma and the dialysing liquid [4]: no variations
change of plasma concentration of phytate (in words) ([5]; 20-hour period, dialysis liquid with phytate concentration greater than that of the plasma): increase the plasma concentration
phytate from the dialysis liquid that enters into the artificial plasma ([5]; 20 hours dialysis, plasma 300 μM phytate, dialysis liquid 5 times greater, pH 7.4): up to 0.75%
increase of the concentration of phytate in the artificial plasma ([5]; 20 hours dialysis, plasma 300 μM phytate, dialysis liquid 5 times greater, from ratio of initial volumes and concentrations): 140%
concentration at 24 h ([6]; male, Wistar, rat, plasma, blood 24 hours after last administration, read-out: plasma level of phytate): 1000 ng/mL
urinary excretion of phytate ([6]; 24-hour urine after last administration): 72 ± 10 µg
quantity of phytate in the dialysis solution, as share of the initial quantity in the artificial plasma [7]: 40%
